Data reported in paper PMC5853558, “De novo identification of lipid II binding lipopeptides with antibacterial activity against vancomycin-resistant bacteria” (Chemical Science, 2017).
Converted amounts (≈) assume the structure as drawn. Like-named read-outs stand apart in the source and are kept apart here. *1 amine or outer side, *2 acyl side, *3 side chain or, on linkers, in order; H or OH if unused. Where a SMILES comes first, the peptide text is derived from it. Bridges are numbered along the chain shown (N, C = ends). [ ]: non-standard residue; d: D form. The star is where a group is joined. TBMB = c1c(C[*:1])cc(C[*:3])cc1C[*:2]; NHDecyl = CCCCCCCCCCN*; NHOctyl = CCCCCCCCN*; NHHex = CCCCCCN*

Key:
Test in all cases: microbe, parasite or virus in culture
B. subtilis (168) = type: cell-based; conditions: for MIC: Bacillus subtilis, read-out: MIC B. subtilis (168)
Procedure: (§1) Section 4 Biological and biochemical experiments
(§2) 4.1 Minimum inhibitory concentration assay
(§3) MIC values were determined by using the broth microdilution method. Peptides were dissolved first in DMSO and diluted with broth so that the final peptide concentration was 1024 µg/ml and the DMSO concentration was 4%. Peptide serial dilutions were made in TSB in a polypropylene 96-wells plate using 50 µl volumes. An overnight culture of the organism of interest was diluted to and OD600 of 0.01 and grown until they reach 0.5. The culture was then diluted to 1 x 10^6 CFU/ml and 50 µl of this suspension was added to each well. The highest concentrations were then 512 µg/ml peptide and 2% DMSO. The plates were incubated at the preferred growth temperature of the organism that was used and 250 rpm. […] When […]
(§4) determining the MICs of the lipidated peptides, the lipopeptides were first dissolved in DMSO and diluted with TSB so that the peptide concentration was 128 µg/ml and the DMSO concentration was 4%. After inoculation the highest peptide concentration evaluated was 64 µg/ml and the DMSO concentration was 2%. A DMSO control was tested for each strain to ensure the DMSO did not affect the growth of the particular strain. […]

M. luteus (NCTC2665) = type: cell-based, Micrococcus luteus; conditions: for MIC of Ala scan of P8-D against M. luteus: Supplemental table S8, non-lipidated P8 variants, highest tested 512 µg/ml; for MIC: Micrococcus luteus
Procedure: as §1, §2, §3, §4

E. faecium (VRE155) = type: cell-based, Enterococcus faecium; conditions: for MIC VRE E155: Supplemental table S7, P8 with varying lipids, broth microdilution; for MIC: Enterococcus faecium, read-out: MIC E. faecium (VRE155)
Procedure: as §1, §2, §3, §4

E. faecium (VRE7391) = type: cell-based, Enterococcus faecium; conditions: Enterococcus faecium, read-out: MIC E. faecium (VRE7391)
Procedure: as §1, §2, §3, §4

E. faecium (E980) = type: cell-based, Enterococcus faecium; conditions: Enterococcus faecium, read-out: MIC E. faecium (E980)
Procedure: as §1, §2, §3, §4

E. faecium (VRE2297) = type: cell-based, Enterococcus faecium; conditions: Enterococcus faecium, read-out: MIC E. faecium (VRE2297)
Procedure: as §1, §2, §3, §4

E. faecium (VRE0321) = type: cell-based, Enterococcus faecium; conditions: Enterococcus faecium, read-out: MIC E. faecium (VRE0321)
Procedure: as §1, §2, §3, §4

S. epidermidis (1587) = type: cell-based; conditions: Staphylococcus epidermidis, read-out: MIC S. epidermidis (1587)
Procedure: as §1, §2, §3, §4

S. pyogenes (5448) = type: cell-based; conditions: Streptococcus pyogenes, read-out: MIC S. pyogenes (5448)
Procedure: as §1, §2, §3, §4

[1] = Supplemental table S6, lipidated phage display hits, n.a. = not active, highest tested conc 64 µg/ml
[2] = Supplemental table S7, P8 with varying lipids, broth microdilution

## CCCCCCCCCCNC(=O)CNC(=O)[C@@H]1CSCc2cc3cc(c2)CSC[C@H](NC(=O)[C@H](CC(N)=O)NC(=O)[C@H](Cc2ccccc2)NC(=O)[C@H](CCCCN)NC(=O)[C@H](CCC(N)=O)NC(=O)[C@@H]2CCCN2C(=O)[C@H](CCCNC(=N)N)NC(=O)[C@@H](NC(=O)[C@H](C)N)CSC3)C(=O)N[C@@H]([C@@H](C)CC)C(=O)N[C@@H](CO)C(=O)N[C@@H](C)C(=O)N[C@@H](CC(N)=O)C(=O)N[C@@H]([C@@H](C)CC)C(=O)N[C@@H](CCCNC(=N)N)C(=O)N1 [Peptide P4-C10] (H-ACRPQKFNCISANIRCG-NHDecyl; linker 2-9-16 via TBMB; N-terminus assumed)
B. subtilis (168); [1]
  MIC B. subtilis: 8 to 16 mg/L
M. luteus (NCTC2665); [1]
  MIC M. luteus: 8 mg/L (≈ 3.75 µM)

## CCCCCCNC(=O)CNC(=O)[C@H]1CSCc2cc3cc(c2)CSC[C@@H](NC(=O)[C@@H](CC(C)C)NC(=O)[C@@H](CC(C)C)NC(=O)[C@@H](CO)NC(=O)[C@@H](CCC(N)=O)NC(=O)[C@@H](CC(C)C)NC(=O)[C@@H](CC(C)C)NC(=O)[C@H](NC(=O)[C@@H](C)N)CSC3)C(=O)N2CCC[C@@H]2C(=O)N[C@H](Cc2ccc(O)cc2)C(=O)N[C@H](CO)C(=O)N[C@H]([C@H](C)O)C(=O)N[C@H](Cc2c[nH]cn2)C(=O)N[C@H](CCCNC(=N)N)C(=O)N1 [Peptide P8-D-C6] (H-[dA][dC][dL][dL][dQ][dS][dL][dL][dC][dP][dY][dS][dT][dH][dR][dC]G-NHHex; linker 2-9-16 via TBMB; N-terminus assumed)
E. faecium (VRE155)
  MIC VRE E155: 16 to 32 mg/L
M. luteus (NCTC2665); [2]
  MIC M. luteus: 32 mg/L (≈ 15.5 µM)

## CCCCCCCCNC(=O)CNC(=O)[C@H]1CSCc2cc3cc(c2)CSC[C@@H](NC(=O)[C@@H](CC(C)C)NC(=O)[C@@H](CC(C)C)NC(=O)[C@@H](CO)NC(=O)[C@@H](CCC(N)=O)NC(=O)[C@@H](CC(C)C)NC(=O)[C@@H](CC(C)C)NC(=O)[C@H](NC(=O)[C@@H](C)N)CSC3)C(=O)N2CCC[C@@H]2C(=O)N[C@H](Cc2ccc(O)cc2)C(=O)N[C@H](CO)C(=O)N[C@H]([C@H](C)O)C(=O)N[C@H](Cc2c[nH]cn2)C(=O)N[C@H](CCCNC(=N)N)C(=O)N1 [Peptide P8-D-C8] (H-[dA][dC][dL][dL][dQ][dS][dL][dL][dC][dP][dY][dS][dT][dH][dR][dC]G-NHOctyl; linker 2-9-16 via TBMB; N-terminus assumed)
E. faecium (VRE155)
  MIC VRE E155: 8 to 16 mg/L
M. luteus (NCTC2665); [2]
  MIC M. luteus: 16 mg/L (≈ 7.65 µM)

## CC(C)C[C@H]1NC(=O)[C@H](NC(=O)[C@@H](C)N)CSCc2cc3cc(c2)CSC[C@@H](NC(=O)[C@@H](CC(C)C)NC(=O)[C@@H](CC(C)C)NC(=O)[C@@H](CO)NC(=O)[C@@H](CCC(N)=O)NC(=O)[C@@H](CC(C)C)NC1=O)C(=O)N1CCC[C@@H]1C(=O)N[C@H](Cc1ccc(O)cc1)C(=O)N[C@H](CO)C(=O)N[C@H]([C@H](C)O)C(=O)N[C@H](Cc1c[nH]cn1)C(=O)N[C@H](C)C(=O)N[C@@H](C(=O)NCC(N)=O)CSC3 [Peptide P8-D-R15A] (H-[dA][dC][dL][dL][dQ][dS][dL][dL][dC][dP][dY][dS][dT][dH][dA][dC]G-NH2; linker 2-9-16 via TBMB; N-terminus assumed)
M. luteus (NCTC2665); broth microdilution
  MIC of Ala scan of P8-D against M. luteus: 128 to 256 mg/L

## CC(C)C[C@H]1NC(=O)[C@@H](C)NC(=O)[C@@H](CCC(N)=O)NC(=O)[C@@H](CC(C)C)NC(=O)[C@@H](CC(C)C)NC(=O)[C@H](NC(=O)[C@@H](C)N)CSCc2cc3cc(c2)CSC[C@@H](NC(=O)[C@@H](CC(C)C)NC1=O)C(=O)N1CCC[C@@H]1C(=O)N[C@H](Cc1ccc(O)cc1)C(=O)N[C@H](CO)C(=O)N[C@H]([C@H](C)O)C(=O)N[C@H](Cc1c[nH]cn1)C(=O)N[C@H](CCCNC(=N)N)C(=O)N[C@@H](C(=O)NCC(N)=O)CSC3 [Peptide P8-D-S6A] (H-[dA][dC][dL][dL][dQ][dA][dL][dL][dC][dP][dY][dS][dT][dH][dR][dC]G-NH2; linker 2-9-16 via TBMB; N-terminus assumed)
M. luteus (NCTC2665); broth microdilution
  MIC of Ala scan of P8-D against M. luteus: 64 to 128 mg/L

## CC(C)C[C@H]1NC(=O)[C@H](NC(=O)[C@@H](C)N)CSCc2cc3cc(c2)CSC[C@@H](NC(=O)[C@@H](CC(C)C)NC(=O)[C@@H](CC(C)C)NC(=O)[C@@H](CO)NC(=O)[C@@H](CCC(N)=O)NC(=O)[C@@H](CC(C)C)NC1=O)C(=O)N1CCC[C@@H]1C(=O)N[C@H](Cc1ccc(O)cc1)C(=O)N[C@H](C)C(=O)N[C@H]([C@H](C)O)C(=O)N[C@H](Cc1c[nH]cn1)C(=O)N[C@H](CCCNC(=N)N)C(=O)N[C@@H](C(=O)NCC(N)=O)CSC3 [Peptide P8-D-S12A] (H-[dA][dC][dL][dL][dQ][dS][dL][dL][dC][dP][dY][dA][dT][dH][dR][dC]G-NH2; linker 2-9-16 via TBMB; N-terminus assumed)
M. luteus (NCTC2665); broth microdilution
  MIC of Ala scan of P8-D against M. luteus: 512 mg/L

## CC(C)C[C@H]1NC(=O)[C@H](NC(=O)[C@@H](C)N)CSCc2cc3cc(c2)CSC[C@@H](NC(=O)[C@@H](CC(C)C)NC(=O)[C@@H](CC(C)C)NC(=O)[C@@H](CO)NC(=O)[C@@H](CCC(N)=O)NC(=O)[C@@H](CC(C)C)NC1=O)C(=O)N1CCC[C@@H]1C(=O)N[C@H](Cc1ccc(O)cc1)C(=O)N[C@H](CO)C(=O)N[C@H](C)C(=O)N[C@H](Cc1c[nH]cn1)C(=O)N[C@H](CCCNC(=N)N)C(=O)N[C@@H](C(=O)NCC(N)=O)CSC3 [Peptide P8-D-T13A] (H-[dA][dC][dL][dL][dQ][dS][dL][dL][dC][dP][dY][dS][dA][dH][dR][dC]G-NH2; linker 2-9-16 via TBMB; N-terminus assumed)
M. luteus (NCTC2665); broth microdilution
  MIC of Ala scan of P8-D against M. luteus: 512 mg/L

## CC(C)C[C@H]1NC(=O)[C@H](NC(=O)[C@@H](C)N)CSCc2cc3cc(c2)CSC[C@@H](NC(=O)[C@@H](CC(C)C)NC(=O)[C@@H](CC(C)C)NC(=O)[C@@H](CO)NC(=O)[C@@H](CCC(N)=O)NC(=O)[C@@H](CC(C)C)NC1=O)C(=O)N1CCC[C@@H]1C(=O)N[C@H](C)C(=O)N[C@H](CO)C(=O)N[C@H]([C@H](C)O)C(=O)N[C@H](Cc1c[nH]cn1)C(=O)N[C@H](CCCNC(=N)N)C(=O)N[C@@H](C(=O)NCC(N)=O)CSC3 [Peptide P8-D-Y11A] (H-[dA][dC][dL][dL][dQ][dS][dL][dL][dC][dP][dA][dS][dT][dH][dR][dC]G-NH2; linker 2-9-16 via TBMB; N-terminus assumed)
M. luteus (NCTC2665); broth microdilution
  MIC of Ala scan of P8-D against M. luteus: 512 mg/L

## CC(C)C[C@H]1NC(=O)[C@H](NC(=O)[C@@H](C)N)CSCc2cc3cc(c2)CSC[C@@H](NC(=O)[C@@H](CC(C)C)NC(=O)[C@@H](CC(C)C)NC(=O)[C@@H](CO)NC(=O)[C@@H](CCC(N)=O)NC(=O)[C@@H](CC(C)C)NC1=O)C(=O)N1CCC[C@@H]1C(=O)N[C@H](Cc1ccc(O)cc1)C(=O)N[C@H](CO)C(=O)N[C@H]([C@H](C)O)C(=O)N[C@H](Cc1c[nH]cn1)C(=O)N[C@H](CCCNC(=N)N)C(=O)N[C@@H](C(=O)NCC(N)=O)CSC3 [Peptide P8] (H-[dA][dC][dL][dL][dQ][dS][dL][dL][dC][dP][dY][dS][dT][dH][dR][dC]G-NH2; linker 2-9-16 via TBMB; N-terminus assumed)
M. luteus (NCTC2665); broth microdilution
  MIC of Ala scan of P8-D against M. luteus: 128 mg/L
M. luteus (NCTC2665); Table 1, non-lipidated bicyclic peptides, broth microdilution in TSB, 16 h, read visually, n.a. = no activity, highest tested concentration 512 μg mL^–1
  MIC against M. luteus: 64–128 μg mL^–1

## CN[C@H](CC(C)C)C(=O)N[C@H]1C(=O)N[C@@H](CC(N)=O)C(=O)N[C@H]2C(=O)N[C@H]3C(=O)N[C@H](C(=O)N[C@H](C(=O)O)c4cc(O)cc(O)c4-c4cc3ccc4O)[C@H](O)c3ccc(c(Cl)c3)Oc3cc2cc(c3O[C@@H]2O[C@H](CO)[C@@H](O)[C@H](O)[C@H]2O[C@H]2C[C@](C)(N)[C@H](O)[C@H](C)O2)Oc2ccc(cc2Cl)[C@H]1O [Vancomycin]
E. faecium (VRE7391); 16 h
  MIC: > 64 mg/L
E. faecium (VRE7391)
  MIC: > 44.2 µM
E. faecium (VRE155); 16 h
  MIC: 64 mg/L
E. faecium (VRE155)
  MIC: 44.2 µM
E. faecium (E980); 16 h
  MIC: < 1 mg/L
E. faecium (E980)
  MIC: < 0.7 µM
E. faecium (VRE2297); 16 h
  MIC: > 64 mg/L
E. faecium (VRE2297)
  MIC: > 44.2 µM
E. faecium (VRE0321); 16 h
  MIC: > 64 mg/L
E. faecium (VRE0321)
  MIC: > 44.2 µM
S. epidermidis (1587); 16 h
  MIC: 2 mg/L
S. epidermidis (1587)
  MIC: 1.4 µM
B. subtilis (168); 16 h
  MIC: < 1 mg/L
B. subtilis (168)
  MIC: < 0.7 µM
S. pyogenes (5448); 16 h
  MIC: < 1 mg/L
S. pyogenes (5448)
  MIC: < 0.7 µM
M. luteus (NCTC2665); NCTC2665, 16 h, read-out: MIC M. luteus (NCTC2665)
  MIC: < 1 mg/L
M. luteus (NCTC2665); NCTC2665, read-out: MIC M. luteus (NCTC2665)
  MIC: < 0.7 µM
